The values that follow come from patent US20220177477A1 (Central China Normal University, priority 2019, published 2022).

In series [1] the target is T1, TRKB (Homo sapiens, UniProt Q16620).
T1 construct: purchased Carna Biosciences 08-187
Description: In vitro biochemical HTRF KinEASE kinase inhibition, TRKB. Conditions: wild-type kinase, final ATP 2.56 μmol/L. On the procedure: The material and the method are as follows: wild-type kinases such as TRKA, TRKB and TRKC, and mutant kinases such as TRKA-G595R, TRKA-G667C, TRKA-F589L, TRKC-G623R and TRKC-G696A, and are derived from Carna Biosciences 08-186, 08-187, 08-197; HTRF KinEASE TKkit (Cisbio 62TKO PEC); 384 well plates (Greiner corporation); ATP (Life technologies PV 3227), MgCl2 (sigma); PHERAstar FS Multifunctional microplate reader (BMG Co.); low speed centrifuge (StaiteXiangyi corporation); incubator (Binder company).
Preparing a compound working solution: the dispensed compounds were removed from the freezer prior to testing and diluted to 100× concentration with pure DMSO; then the compound was diluted to the desired concentration of 4× with deionized water;
Preparation of 1.33× enzyme buffer (enzyme buffer): 5× enzyme buffer (from HTRF kit) was diluted to 1.33× with deionized water and the corresponding ingredients were added at a final concentration of 1.33×: 1.33 mmol/L Dithiothreitol (DTT), 1.33 mmol/L MnCl2, 6.65 mmol/L MgCl2 and 39.9 nmol/L SEB;
Preparation of a kinase working solution: TRKA, TRKB and TRKC were diluted with 1.33× enzyme buffer to the required concentrations of 2× of 0.404 ng/μL, 0.304 ng/μL and 0.236 ng/μL, respectively;
Preparing a substrate working solution: a mixture of TK Substrate Blr diluted to the desired final concentration of 4× (from HTRF kit) and ATP (10 mM) with 1.33× enzyme buffer; the final ATP concentrations for TRKA, TRKB, and TRKC were: 3.727 μmol/L, 2.56 μmol/L and 2.526 μmol/L. The TK Substrate-biotin (from HTRF KinEASE TKkit) final concentrations were all: 0.2 μmol/L.
Preparing a detection working solution: 16.67 μmol/L of Streptavidin-XL665 (Streptavidin-XL 665) were diluted to the desired final concentration of 4× with HTRF test buffer and then mixed with an equal volume of Antibody-europium Cryptate (Antibody-Cryptate) (both from HTRF kits).
An enzyme reaction step: add 4 μL of kinase working solution to each well of a low volume 384 microwell plate along with 4 μL of 1.33× enzyme buffer as a Negative control (Negative); add 2 μl of compound working solution to the wells, while adding 2 μl of […] aqueous solution as a zero compound concentration control (i.e., Positive control, Positive); incubating at 25° C. for 5 min; add 2 μL of substrate working solution to the wells to start the enzymatic reaction, shake the reaction for 30 min at 37° C.
HTRF reagent detection step: adding […] to the hole to terminate the reaction; reacting for 1 h at 25° C.;
Reading of HTRF signal: the PHERAstar FS reading is adopted to detect signals, and the corresponding setting of the instrument is as follows:
For the raw data read out per well, the ratio=665 nm/620 nm;
Calculation of inhibition rate:
Calculation of IC50 values: with the logarithm of the compound concentration as abscissa and the inhibition as ordinate, a non-linear curve was fitted in GraphPad Prism 5: log (inhibitor) vs. response—Variable slope, and calculating the concentration of the compound to be detected, namely IC50, when the enzyme activity inhibition rate is 50%.
(TR-FRET usually uses a lanthanide donor and a delayed reading to cut background.)

Series [2] is described as follows: Drug metabolism study in rats, oral administration. Conditions: rat.
The nature of series [3]: Drug metabolism study in rats, intravenous administration. Conditions: rat, plasma, iv, 1 mg/kg.
Series [4] has as its target T2, TRKA (Homo sapiens, UniProt P04629).
T2 construct: purchased Carna Biosciences 08-186
Description: In vitro biochemical HTRF KinEASE kinase inhibition, TRKA.

The mark [5] stands for this setting: wild-type kinase, final ATP 3.727 μmol/L, read-out: TRKA IC50.

Like-named read-outs stand apart in the source and are kept apart here.

T2 sequence (P04629 33-796): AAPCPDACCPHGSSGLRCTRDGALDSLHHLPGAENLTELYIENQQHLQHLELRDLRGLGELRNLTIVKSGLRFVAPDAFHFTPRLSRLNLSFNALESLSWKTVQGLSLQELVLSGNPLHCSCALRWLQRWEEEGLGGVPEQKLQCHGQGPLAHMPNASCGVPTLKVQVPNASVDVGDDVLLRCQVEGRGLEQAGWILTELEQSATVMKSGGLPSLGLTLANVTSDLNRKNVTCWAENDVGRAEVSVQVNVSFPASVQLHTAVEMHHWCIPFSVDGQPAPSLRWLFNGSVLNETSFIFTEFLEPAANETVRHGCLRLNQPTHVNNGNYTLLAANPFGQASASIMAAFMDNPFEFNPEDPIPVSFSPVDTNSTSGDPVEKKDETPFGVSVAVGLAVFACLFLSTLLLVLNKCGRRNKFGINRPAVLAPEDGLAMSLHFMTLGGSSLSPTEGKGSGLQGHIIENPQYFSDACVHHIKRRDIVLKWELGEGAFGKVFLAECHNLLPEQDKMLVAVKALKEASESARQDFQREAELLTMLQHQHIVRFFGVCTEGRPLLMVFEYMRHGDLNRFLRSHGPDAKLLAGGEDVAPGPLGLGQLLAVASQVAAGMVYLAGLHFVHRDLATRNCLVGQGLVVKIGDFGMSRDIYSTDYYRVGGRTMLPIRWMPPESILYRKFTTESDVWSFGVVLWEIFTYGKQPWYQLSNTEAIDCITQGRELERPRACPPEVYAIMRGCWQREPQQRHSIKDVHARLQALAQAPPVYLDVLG
T1 sequence (Q16620 32-822): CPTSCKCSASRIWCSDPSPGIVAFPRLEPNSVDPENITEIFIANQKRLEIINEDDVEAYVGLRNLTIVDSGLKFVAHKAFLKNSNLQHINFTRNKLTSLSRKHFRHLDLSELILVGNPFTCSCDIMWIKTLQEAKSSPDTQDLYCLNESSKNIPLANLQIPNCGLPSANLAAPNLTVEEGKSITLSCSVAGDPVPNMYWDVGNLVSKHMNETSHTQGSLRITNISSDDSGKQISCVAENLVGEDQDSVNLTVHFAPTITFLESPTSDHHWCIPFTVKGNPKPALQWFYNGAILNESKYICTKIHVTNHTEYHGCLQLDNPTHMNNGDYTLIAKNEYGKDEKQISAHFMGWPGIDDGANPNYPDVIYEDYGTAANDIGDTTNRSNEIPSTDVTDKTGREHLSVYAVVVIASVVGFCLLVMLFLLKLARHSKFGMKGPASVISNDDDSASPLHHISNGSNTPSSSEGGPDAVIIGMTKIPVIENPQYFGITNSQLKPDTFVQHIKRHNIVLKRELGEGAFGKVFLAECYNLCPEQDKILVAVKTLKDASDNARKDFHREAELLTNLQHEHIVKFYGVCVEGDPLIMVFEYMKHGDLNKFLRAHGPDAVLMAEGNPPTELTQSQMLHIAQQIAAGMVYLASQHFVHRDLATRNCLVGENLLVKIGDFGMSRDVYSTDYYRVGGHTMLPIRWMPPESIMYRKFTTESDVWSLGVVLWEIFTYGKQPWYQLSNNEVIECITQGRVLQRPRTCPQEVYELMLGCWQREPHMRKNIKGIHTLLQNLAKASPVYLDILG

Usually IC50 stands for the concentration at which inhibition is half-maximal. As a reminder, the AUC(0-t) is the area under the concentration-time curve up to a stated or last time point. Low readings indicate less exposure, high ones more exposure. As a reminder, the Cmax is the highest concentration seen after dosing. What is called MRT last is the average time that molecules of a dose stay in the body. By Tmax is commonly meant the time at which the peak concentration occurs. As a reminder, the bioavailability is dose-corrected exposure relative to a reference, in per cent. Low values mean little systemic uptake, high ones much systemic uptake. One may read the half-life as the time in which the quantity being followed falls by half. A higher half-life goes with slow loss. One may read the Vd as the apparent volume that relates the amount in the body to the concentration in plasma or blood. One may read the clearance as the volume of plasma or blood freed of the substance per unit of time. Low values mean a low capacity for elimination, high ones a high capacity for elimination. As for `C[C@@H](Nc1ccn2ncc(-c3cnn(C)c3)c2n1)c1cc(F)ccc1OCC(F)F` [Compound 2, (R)-N-(1-(2-(2,2-difluoroethoxy)-5-fluorophenyl)ethyl)-3-(1-methyl-1H-pyrazol-4-yl) pyrazolo [1,5-a] pyrimidin-5-amine], 0.0028 µM corresponded to half-maximal inhibition in series [1] (IC50). In series [2] (oral 5 mg/kg), this compound showed a CL of 168.7 mL/min/kg and a Vz of 37.61 L/kg. Moreover, in series [2] (plasma, po, 5 mg/kg), the AUC(0-t) is 533 ng·h/mL, the maximum concentration (Cmax) is 150 ng/mL, the MRT last was 2.62 h and the Tmax worked out at 0.67 h. In series [2] (plasma, po, 5 mg/kg), this compound gave a bioavailability of 30.2% and a half-life of 2.85 h. In series [3], the exposure AUC(0-t) came to 353 ng·h/mL, the Cmax was 298 ng/mL, the MRT last stood at 1.49 h and the Vd was 6.8 L/kg. In series [3], the clearance was 46 mL/min/kg and the half-life is 1.71 h.
Regarding `COCCOc1ccc(F)cc1C(C)Nc1ccn2ncc(-c3cnn(C4CCOCC4)c3)c2n1` (stereo not drawn) [Compound a9-14, N-(1-(5-fluoro-2-(2-methoxyethoxy)phenyl)ethyl)-3-(1-(tetrahydro-2H-pyran-4-yl)-1H-pyrazol-4-yl) pyrazolo [1,5-a] pyrimidin-5-amine], the half-inhibitory concentration (IC50) in series [4] (setting [5]) stood at 0.0678 µM.
The same measure, in the same setting: the result for `C[C@@H](Nc1ccn2ncc(-c3cnn(CC#N)c3)c2n1)c1cc(F)ccc1OCCF` [Compound a12-19, (R)-2-(4-(5-((1-(5-fluoro-2-(2-fluoroethoxy)phenyl)ethyl)amino)pyrazolo [1,5-a]pyrimidin-3-yl)-1H-pyrazol-1-yl) acetonitrile] reads 0.0033 µM.
The same measure, in the same setting: the result for `CC(Nc1ccn2ncc(-c3cnn(C(C)C)c3)c2n1)c1cc(F)ccc1OCCF` (stereo not drawn) [Compound a13-20, N-(1-(5-fluoro-2-(2-fluoroethoxy)phenyl)ethyl)-3-(1-isopropyl-1H-pyrazol-4-yl) pyrazolo [1,5-a] pyrimidin-5-amine] reads 0.0202 µM; that for `CC(Nc1ccn2ncc(-c3cnn(C4CC4)c3)c2n1)c1cc(F)ccc1OCCF` (stereo not drawn) [Compound a14-21, 3-(1-cyclopropyl-1H-pyrazol-4-yl)-N-(1-(5-fluoro-2-(2-fluoroethoxy)phenyl)ethyl) pyrazolo [1,5-a] pyrimidin-5-amine], 0.012 µM; that for `CC(Nc1ccn2ncc(-c3cnn(CCO)c3)c2n1)c1cc(F)ccc1OCCF` (stereo not drawn) [Compound a15-22, 2-(4-(5-((1-(5-fluoro-2-(2-fluoroethoxy)phenyl)ethyl)amino)pyrazolo [1,5-a]pyrimidin-3-yl)-1H-pyrazol-1-yl) ethanol], 0.0079 µM.
Turning to `CC(Nc1ccn2ncc(-c3cnn(CC(F)F)c3)c2n1)c1cc(F)ccc1OCCF` (stereo not drawn) [Compound a16-23, 3-(1-(2,2-difluoroethyl)-1H-pyrazol-4-yl)-N-(1-(5-fluoro-2-(2-fluoroethoxy)phenyl)ethyl) pyrazolo [1,5-a] pyrimidin-5-amine], the IC50 in series [4] (setting [5]) amounted to 0.009 µM.
For the compound `CC(Nc1ccn2ncc(-c3cnn(C4CCCC4O)c3)c2n1)c1cc(F)ccc1OCCF` (stereo not drawn) [Compound a17-24, 2-(4-(5-((1-(5-fluoro-2-(2-fluoroethoxy)phenyl)ethyl)amino)pyrazolo [1,5-a]pyrimidin-3-yl)-1H-pyrazol-1-yl) cyclopentan-1-ol], the IC50 in series [4] (setting [5]) worked out at 0.0076 µM.
Still for that read-out and setting: the result for `CC(Nc1ccn2ncc(-c3cnn(C4CCCCC4O)c3)c2n1)c1cc(F)ccc1OCCF` (stereo not drawn) [Compound a18-25, 2-(4-(5-((1-(5-fluoro-2-(2-fluoroethoxy)phenyl)ethyl)amino)pyrazolo [1,5-a]pyrimidin-3-yl)-1H-pyrazol-1-yl) cyclohexan-1-ol] reads 0.009 µM; that for `CC(Nc1ccn2ncc(-c3cnn(C4CCOCC4)c3)c2n1)c1cc(F)ccc1OCCF` (stereo not drawn) [Compound a19-26, N-(1-(5-fluoro-2-(2-fluoroethoxy)phenyl)ethyl)-3-(1-(tetrahydro-2H-pyran-4-yl)-1H-pyrazol-4-yl) pyrazolo [1,5-a] pyrimidin-5-amine], 0.0158 µM.
On the same count and under the same terms, the result for `C[C@@H](Nc1ccn2ncc(-c3cnn(C4CCCCO4)c3)c2n1)c1cc(F)ccc1OCCF` (stereo partly drawn) [Compound a20-27, N-((R)-1-(5-fluoro-2-(2-fluoroethoxy)phenyl)ethyl)-3-(1-(tetrahydro-2H-pyran-2-yl)-1H-pyrazol-4-yl) pyrazolo [1,5-a] pyrimidin-5-amine] reads 0.0028 µM.
Still for that read-out and setting: the result for `CC(=O)n1cc(-c2cnn3ccc(NC(C)c4cc(F)ccc4OCCF)nc23)cn1` (stereo not drawn) [Compound a21-28, 1-(4-(5-((1-(5-fluoro-2-(2-fluoroethoxy)phenyl)ethyl)amino)pyrazolo [1,5-a]pyrimidin-3-yl)-1H-pyrazol-1-yl) ethanone] reads 0.0053 µM; that for `CC(Nc1ccn2ncc(-c3cnn(S(C)(=O)=O)c3)c2n1)c1cc(F)ccc1OCCF` (stereo not drawn) [Compound a22-29, N-(1-(5-fluoro-2-(2-fluoroethoxy)phenyl)ethyl)-3-(1-(methylsulfonyl)-1H-pyrazol-4-yl) pyrazolo [1,5-a] pyrimidin-5-amine], 0.0146 µM; that for `CC(Nc1ccn2ncc(-c3cnn(C4CCOCC4)c3)c2n1)c1cc(F)ccc1OCCCF` (stereo not drawn) [Compound a25-35, N-(1-(5-fluoro-2-(3-fluoropropoxy)phenyl)ethyl)-3-(1-(tetrahydro-2H-pyran-4-yl)-1H-pyrazol-4-yl) pyrazolo [1,5-a] pyrimidin-5-amine], 0.0248 µM.
`CC(Nc1ccn2ncc(-c3cnn(C)c3)c2n1)c1cc(F)ccc1OCC1CCOCC1` (stereo not drawn) [Compound a28-43, N-(1-(5-fluoro-2-((tetrahydro-2H-pyran-4-yl)methoxy)phenyl)ethyl)-3-(1-methyl-1H-pyrazol-4-yl) pyrazolo [1,5-a] pyrimidin-5-amine]: the IC50 in series [4] (setting [5]) stood at 0.11 µM.
Still for that read-out and setting: the result for `CC(Nc1ccn2ncc(-c3cn[nH]c3)c2n1)c1cc(F)ccc1O` (stereo not drawn) [Compound b1-1, 2-(1-((3-(1H-pyrazol-4-yl)pyrazolo [1,5-a]pyrimidin-5-yl)amino)ethyl)-4-fluorophenol] reads 0.0095 µM; that for `COc1ccc(F)cc1C(C)Nc1ccn2ncc(-c3cn[nH]c3)c2n1` (stereo not drawn) [Compound b2-5, N-(1-(5-fluoro-2-methoxyphenyl)ethyl)-3-(1H-pyrazol-4-yl) pyrazolo [1,5-a]pyrimidin-5-amine], 0.0152 µM.
Same read-out and setting: the result for `COCCOc1ccc(F)cc1C(C)Nc1ccn2ncc(-c3cn[nH]c3)c2n1` (stereo not drawn) [Compound b6-15, N-(1-(5-fluoro-2-(2-methoxyethoxy)phenyl)ethyl)-3-(1H-pyrazol-4-yl) pyrazolo [1,5-a] pyrimidin-5-amine] reads 0.024 µM.
For `CC(Nc1ccn2ncc(-c3cn[nH]c3)c2n1)c1cc(F)ccc1OCC#N` (stereo not drawn) [Compound b11-36, 2-(2-(1-((3-(1H-pyrazol-4-yl)pyrazolo [1,5-a]pyrimidin-5-yl)amino)ethyl)-4-fluorophenoxy) acetonitrile], the IC50 in series [4] was determined as 0.0886 µM.
As to `CC(Nc1ccn2ncc(-c3cn[nH]c3)c2n1)c1cc(F)ccc1OCC1CC1` (stereo not drawn) [Compound b12-37, N-(1-(2-(cyclopropylmethoxy)-5-fluorophenyl)ethyl)-3-(1H-pyrazol-4-yl) pyrazolo [1,5-a] pyrimidin-5-amine], the IC50 in series [4] (setting [5]) is 0.0042 µM.
In the case of `CC(Nc1ccn2ncc(-c3cn[nH]c3)c2n1)c1cc(F)ccc1OCC1CCOCC1` (stereo not drawn) [Compound b15-42, N-(1-(5-fluoro-2-((tetrahydro-2H-pyran-4-yl)methoxy)phenyl)ethyl)-3-(1H-pyrazol-4-yl) pyrazolo [1,5-a] pyrimidin-5-amine], the IC50 in series [4] (setting [5]) was determined as 0.055 µM.
The same measure, in the same setting: the result for `CC(Nc1ccn2ncc(-c3cn[nH]c3)c2n1)c1cc(F)ccc1OCCN1CCOCC1` (stereo not drawn) [Compound b16-44, N-(1-(5-fluoro-2-(2-morpholinoethoxy)phenyl)ethyl)-3-(1H-pyrazol-4-yl) pyrazolo [1,5-a] pyrimidin-5-amine] reads 0.364 µM.
